pIC50: −log10 of the molar value.

This passage reports IC50 results from ChEMBL document CHEMBL5727484, “Compounds and methods for inhibiting NHE-mediated antiport in the treatment of disorders associated with fluid retention or salt overload and gastrointestinal tract disorders” (2020).

This test can be described thus: Cell-Based Assay of NHE-3 Activity: Rat NHE-3-mediated Na+-dependent H+ antiport was measured using a modification of the pH sensitive dye method originally reported by Tsien (Proc. Natl. Acad. Sci. USA. (1984) 81(23): 7436-7440). Opossum kidney (OK) cells were obtained from the ATCC and propagated per their instructions. The rat NHE-3 gene was introduced into OK cells via electroporation, seeded into 96 well plates and grown overnight. Medium was aspirated from the wells, cells were washed twice with NaCl-HEPES buffer (100 mM NaCl, 50 mM HEPES, 10 mM glucose, 5 mM KCl, 2 mM CaCl2, 1 mM MgCl2, pH 7.4), then incubated for 30 min at room temperature with NH4Cl-HEPES buffer (20 mM NH4Cl, 80 mM NaCl, 50 mM HEPES, 5 mM KCl, 2 mM CaCl2, 1 mM MgCl2, pH 7.4) containing 5 uM BCECF-AM (Invitrogen). Cells were washed twice with Ammonium free, Na+-free HEPES (100 mM choline, 50 mM HEPES, 10 mM glucose, 5 mM KCl, 2 mM CaCl2, 1 mM MgCl2, pH 7.4) and incubated in the same buffer for 10 minutes at room temperature to lower intracellular pH. […] Initial rates were plotted as the average 3-6 replicates, and pIC50 values were estimated using GraphPad Prism.
By IC50 is commonly meant the concentration that inhibits the measured activity by half. For the molecule `CN1Cc2c(Cl)cc(Cl)cc2C(c2cccc(S(=O)(=O)NCCOCCOCCOCCNC(=O)CCCCCCC(=O)NCCOCCOCCOCCNS(=O)(=O)c3cccc(C4CN(C)Cc5c(Cl)cc(Cl)cc54)c3)c2)C1` (stereo not drawn), the IC50 entry was “in the range around 316 nM”.

One may read the pIC50 as the negative decadic logarithm of the IC50, by convention in mol/L. For the molecule `CN1Cc2c(Cl)cc(Cl)cc2C(c2cccc(S(=O)(=O)NCCOCCOCCNC(=O)NCCCCNC(=O)NCCOCCOCCNS(=O)(=O)c3cccc(C4CN(C)Cc5c(Cl)cc(Cl)cc54)c3)c2)C1` (stereo not drawn), the pIC50 is above 7.00.

For the molecule `CN1Cc2c(Cl)cc(Cl)cc2C(c2cccc(S(=O)(=O)NCCOCCOCCOCCNC(=O)c3ccccc3C(=O)NCCOCCOCCOCCNS(=O)(=O)c3cccc(C4CN(C)Cc5c(Cl)cc(Cl)cc54)c3)c2)C1` (stereo not drawn), the pIC50 is above 7.00. For the molecule `CN1Cc2c(Cl)cc(Cl)cc2C(c2ccc(S(=O)(=O)NCCOCCOCCNC(=O)[C@H](O)[C@@H](O)C(=O)NCCOCCOCCNS(=O)(=O)c3ccc(C4CN(C)Cc5c(Cl)cc(Cl)cc54)cc3)cc2)C1` (stereo partly drawn), the IC50 entry was “in the range around 316 nM”.

`CN1Cc2c(Cl)cc(Cl)cc2C(c2cccc(S(=O)(=O)NCCOCCOCCNC(=O)c3ccc(C(=O)NCCOCCOCCNS(=O)(=O)c4cccc(C5CN(C)Cc6c(Cl)cc(Cl)cc65)c4)cc3)c2)C1` (stereo not drawn): the IC50 entry is “in the range around 3160 nM”. Same read-out and setting: the same measure for `CN1Cc2c(Cl)cc(Cl)cc2C(c2cccc(S(=O)(=O)NCCOCCOCCOCCNC(=O)NCCOCCOCCOCCNS(=O)(=O)c3cccc(C4CN(C)Cc5c(Cl)cc(Cl)cc54)c3)c2)C1` (stereo not drawn): “in the range around 316 nM”. Consider `CN1Cc2c(Cl)cc(Cl)cc2C(c2cccc(S(=O)(=O)NCCOCCOCCNC(=O)Nc3ccc(NC(=O)NCCOCCOCCNS(=O)(=O)c4cccc(C5CN(C)Cc6c(Cl)cc(Cl)cc65)c4)cc3)c2)C1` (stereo not drawn), for which the pIC50 was above 7.00.

In the case of `CN1Cc2c(Cl)cc(Cl)cc2C(c2cccc(S(=O)(=O)NCCOCCOCCNC(=O)COCC(=O)NCCOCCOCCNS(=O)(=O)c3cccc(C4CN(C)Cc5c(Cl)cc(Cl)cc54)c3)c2)C1` (stereo not drawn), the negative-log IC50 (pIC50) is above 7.00. Regarding `CN1Cc2c(Cl)cc(Cl)cc2C(c2ccc(S(=O)(=O)NCCOCCOCCOCCNC(=O)c3ccc(C(=O)NCCOCCOCCOCCNS(=O)(=O)c4ccc(C5CN(C)Cc6c(Cl)cc(Cl)cc65)cc4)cc3)cc2)C1` (stereo not drawn), the pIC50 was above 5.00.

As for `CN1Cc2c(Cl)cc(Cl)cc2C(c2cccc(S(=O)(=O)NCCOCCOCCNC(=O)C(C)(C)C(=O)NCCOCCOCCNS(=O)(=O)c3cccc(C4CN(C)Cc5c(Cl)cc(Cl)cc54)c3)c2)C1` (stereo not drawn), the IC50 result was “in the range around 3160 nM”. The same measure, in the same setting: under `NC(N)=NCCCN1CCN(c2cccc(-c3nc(N=C(N)N)nc4ccc(Cl)cc34)c2)CC1` stands “in the range around 316 nM”. In the case of `CN1Cc2c(Cl)cc(Cl)cc2C(c2cccc(S(=O)(=O)NCCOCCOCCNC(=O)NCCOCCOCCNS(=O)(=O)c3cccc(C4CN(C)Cc5c(Cl)cc(Cl)cc54)c3)c2)C1` (stereo not drawn), the pIC50 was above 5.00. With `CN1Cc2c(Cl)cc(Cl)cc2C(c2cccc(S(=O)(=O)NCCOCCOCCOCCOCCOCCOCCOCCOCCOCCOCCNC(=O)CCOCCOCCOCCOCCOCCOCCOCCOCCOCCC(=O)NCCOCCOCCOCCOCCOCCOCCOCCOCCOCCOCCNS(=O)(=O)c3cccc(C4CN(C)Cc5c(Cl)cc(Cl)cc54)c3)c2)C1` (stereo not drawn), the IC50 result is “in the range around 316 nM”. As to `CN1Cc2c(Cl)cc(Cl)cc2C(c2cccc(S(=O)(=O)NCCOCCOCCOCCNC(=O)c3cc(C(=O)NCCOCCOCCOCCNS(=O)(=O)c4cccc(C5CN(C)Cc6c(Cl)cc(Cl)cc65)c4)cc(C(=O)NCCOCCOCCOCCNS(=O)(=O)c4cccc(C5CN(C)Cc6c(Cl)cc(Cl)cc65)c4)c3)c2)C1` (stereo not drawn), the pIC50 is above 7.00.

As for `C/C(=C\c1cc(F)c(Oc2ccc(S(=O)(=O)NCCCP(=O)(O)O)cc2)c(F)c1)C(=O)N=C(N)N`, the concentration for half-maximal inhibition (IC50) result is “in the range around 3160 nM”. `NC(N)=Nc1nc(-c2cccc(N3CCN(CCO)CC3)c2)c2cc(Cl)ccc2n1`: the half-maximal inhibitory concentration (IC50) result is “in the range around 316 nM”. With `CN1Cc2c(Cl)cc(Cl)cc2C(c2cccc(S(=O)(=O)NCCOCCOCCNC(=O)CCC(=O)NCCOCCOCCNS(=O)(=O)c3cccc(C4CN(C)Cc5c(Cl)cc(Cl)cc54)c3)c2)C1` (stereo not drawn), the negative-log IC50 (pIC50) is above 7.00. Consider `C/C(=C\c1cc(F)c(Oc2ccc(S(=O)(=O)NCCOCCOCCOCCN)cc2)c(F)c1)C(=O)N=C(N)N`, for which the IC50 result is “in the range around 316 nM”.

`N=C(N)N1CCN(c2ccc(-c3nc(N=C(N)N)nc4ccc(Cl)cc34)cc2)CC1`: the IC50 entry is “in the range around 316 nM”. With `CN1Cc2c(Cl)cc(Cl)cc2C(c2ccc(S(=O)(=O)NCCOCCOCCNC(=O)C(O)C(O)C(=O)NCCOCCOCCNS(=O)(=O)c3ccc(C4CN(C)Cc5c(Cl)cc(Cl)cc54)cc3)cc2)C1` (stereo not drawn), the negative-log IC50 (pIC50) is above 7.00. As to `CN1Cc2c(Cl)cc(Cl)cc2C(c2cccc(S(=O)(=O)NCCOCCOCCOCCNC(=O)c3cccc(C(=O)NCCOCCOCCOCCNS(=O)(=O)c4cccc(C5CN(C)Cc6c(Cl)cc(Cl)cc65)c4)c3)c2)C1` (stereo not drawn), the concentration for half-maximal inhibition (IC50) result was “in the range around 316 nM”. In the case of `C/C(=C\c1cc(F)c(Oc2ccc(S(=O)(=O)NCCOCCOCCOCCNC(=O)CCCCCCC(=O)NCCOCCOCCOCCNS(=O)(=O)c3ccc(Oc4c(F)cc(/C=C(\C)C(=O)N=C(N)N)cc4F)cc3)cc2)c(F)c1)C(=O)N=C(N)N`, the negative logarithm of the IC50 (pIC50) is above 7.00. Same read-out and setting: under `CN1Cc2c(Cl)cc(Cl)cc2C(c2cccc(S(=O)(=O)NCCOCCOCCOCCNC(=O)[C@@H](O)[C@@H](O)C(=O)NCCOCCOCCOCCNS(=O)(=O)c3cccc(C4CN(C)Cc5c(Cl)cc(Cl)cc54)c3)c2)C1` (stereo partly drawn) stands above 7.00; under `CN1Cc2c(Cl)cc(Cl)cc2C(c2ccc(S(=O)(=O)NCCOCCOCCOCCNC(=O)C(O)C(O)C(=O)NCCOCCOCCOCCNS(=O)(=O)c3ccc(C4CN(C)Cc5c(Cl)cc(Cl)cc54)cc3)cc2)C1` (stereo not drawn), above 7.00; under `CN1Cc2c(Cl)cc(Cl)cc2C(c2ccc(S(=O)(=O)NCCOCCOCCNC(=O)c3ccc(C(=O)NCCOCCOCCNS(=O)(=O)c4ccc(C5CN(C)Cc6c(Cl)cc(Cl)cc65)cc4)cc3)cc2)C1` (stereo not drawn), above 5.00. In the case of `CN1Cc2c(Cl)cc(Cl)cc2C(c2ccc(S(=O)(=O)NCCOCCOCCNC(=O)NCCOCCOCCNS(=O)(=O)c3ccc(C4CN(C)Cc5c(Cl)cc(Cl)cc54)cc3)cc2)C1` (stereo not drawn), the negative logarithm of the IC50 (pIC50) is above 5.00. In the case of `NC(N)=Nc1nc(-c2ccc(N3CCN(CCO)CC3)cc2)c2cc(Cl)ccc2n1`, the IC50 result was “in the range around 316 nM”. Consider `C/C(=C\c1cc(F)c(Oc2ccc(S(=O)(=O)NCCOCCOCCOCCOCCOCCOCCN)cc2)c(F)c1)C(=O)N=C(N)N`, for which the IC50 result is “in the range around 316 nM”.

For the molecule `CN1Cc2c(Cl)cc(Cl)cc2C(c2ccc(S(=O)(=O)NCCOCCOCCOCCNC(=O)NCCOCCOCCOCCNS(=O)(=O)c3ccc(C4CN(C)Cc5c(Cl)cc(Cl)cc54)cc3)cc2)C1` (stereo not drawn), the negative logarithm of the IC50 (pIC50) was above 7.00. With `CN1Cc2c(Cl)cc(Cl)cc2C(c2ccc(NS(=O)(=O)NCCP(=O)(O)O)cc2)C1` (stereo not drawn), the IC50 entry was “in the range around 3160 nM”.

Regarding `NCCCN1CCN(c2cccc(-c3nc(N=C(N)N)nc4ccc(Cl)cc34)c2)CC1`, the 50% inhibitory concentration (IC50) result is “in the range around 316 nM”.

On to `CN1Cc2c(Cl)cc(Cl)cc2C(c2cccc(S(=O)(=O)NCCOCCOCCNC(=O)[C@H](O)[C@@H](O)C(=O)NCCOCCOCCNS(=O)(=O)c3cccc(C4CN(C)Cc5c(Cl)cc(Cl)cc54)c3)c2)C1` (stereo partly drawn), for which the IC50 entry is “in the range around 316 nM”. On the same count and under the same terms, under `CN1Cc2c(Cl)cc(Cl)cc2C(c2cccc(S(=O)(=O)NCCOCCOCCOCCNC(=O)CN(CC(=O)NCCOCCOCCOCCNS(=O)(=O)c3cccc(C4CN(C)Cc5c(Cl)cc(Cl)cc54)c3)CC(=O)NCCOCCOCCOCCNS(=O)(=O)c3cccc(C4CN(C)Cc5c(Cl)cc(Cl)cc54)c3)c2)C1` (stereo not drawn) stands “in the range around 316 nM”. On to `CN1Cc2c(Cl)cc(Cl)cc2C(c2cccc(S(=O)(=O)NCCOCCOCCOCCNC(=O)C(O)C(O)C(=O)NCCOCCOCCOCCNS(=O)(=O)c3cccc(C4CN(C)Cc5c(Cl)cc(Cl)cc54)c3)c2)C1` (stereo not drawn), for which the pIC50 was above 7.00. Still for that read-out and setting: the same measure for `CN1Cc2c(Cl)cc(Cl)cc2C(c2cccc(S(=O)(=O)NCCOCCOCCOCCNC(=O)NCCCCNC(=O)NCCOCCOCCOCCNS(=O)(=O)c3cccc(C4CN(C)Cc5c(Cl)cc(Cl)cc54)c3)c2)C1` (stereo not drawn): above 7.00; for `CN1Cc2c(Cl)cc(Cl)cc2C(c2cccc(S(=O)(=O)NCCOCCOCCOCCNC(=O)c3ccc(C(=O)NCCOCCOCCOCCNS(=O)(=O)c4cccc(C5CN(C)Cc6c(Cl)cc(Cl)cc65)c4)cc3)c2)C1` (stereo not drawn): above 7.00.

`CN1Cc2c(Cl)cc(Cl)cc2C(c2cccc(S(=O)(=O)NCCOCCOCCOCCNC(=O)Nc3ccc(NC(=O)NCCOCCOCCOCCNS(=O)(=O)c4cccc(C5CN(C)Cc6c(Cl)cc(Cl)cc65)c4)cc3)c2)C1` (stereo not drawn): the IC50 result was “in the range around 3160 nM”. Regarding `CN1Cc2c(Cl)cc(Cl)cc2C(c2cccc(S(=O)(=O)NCCOCCOCCOCCNC(=O)[C@@H](O)[C@H](O)C(=O)NCCOCCOCCOCCNS(=O)(=O)c3cccc(C4CN(C)Cc5c(Cl)cc(Cl)cc54)c3)c2)C1` (stereo partly drawn), the pIC50 was above 7.00. `O=C(CNCc1ccc(Cl)cc1Cl)c1cccc([N+](=O)[O-])c1`: the negative logarithm of the IC50 (pIC50) is above 5.00. On to `CN1Cc2c(Cl)cc(Cl)cc2C(c2cccc(S(=O)(=O)NCCOCCOCCOCCn3cc(COCc4cn(CCOCCOCCOCCNS(=O)(=O)c5cccc(C6CN(C)Cc7c(Cl)cc(Cl)cc76)c5)nn4)nn3)c2)C1` (stereo not drawn), for which the negative-log IC50 (pIC50) is above 7.00.

Consider `CN1Cc2c(Cl)cc(Cl)cc2C(c2cccc(S(=O)(=O)NCCOCCOCCOCCNS(=O)(=O)c3cccc(S(=O)(=O)NCCOCCOCCOCCNS(=O)(=O)c4cccc(C5CN(C)Cc6c(Cl)cc(Cl)cc65)c4)c3)c2)C1` (stereo not drawn), for which the concentration for half-maximal inhibition (IC50) result was “in the range around 3160 nM”. On to `CN1Cc2c(Cl)cc(Cl)cc2[C@H](c2cccc(S(=O)(=O)NCCOCCOCCNC(=O)Nc3ccc(NC(=O)NCCOCCOCCNS(=O)(=O)c4cccc([C@@H]5CN(C)Cc6c(Cl)cc(Cl)cc65)c4)cc3)c2)C1` (single isomer, unassigned), for which the pIC50 is above 7.00. As to `CN1Cc2c(Cl)cc(Cl)cc2[C@H](c2ccc(S(=O)(=O)NCCOCCOCCNC(=O)COCC(=O)NCCOCCOCCNS(=O)(=O)c3ccc([C@@H]4CN(C)Cc5c(Cl)cc(Cl)cc54)cc3)cc2)C1` (single isomer, unassigned), the pIC50 was above 7.00.
